According to PubChem BioAssay AID248 (DTP/NCI, 2004):
Several values for one entry are separate records, joined by “and”; a condition that tells them apart may be missing. Identical values can stand only once. Inconclusive results and toxic doses are left out. Cut-off read from the data, not from the text of the source: active = T/C of 150% or more; inactive = T/C below 125%.

System: L1210 leukemia ip in BDF1 mice, survival T/C
Assay: NCI In Vivo Anticancer Drug Screen. Data for tumor model L1210 Leukemia (intraperitoneal) in B6D2F1 (BDF1) mice
Conditions: endpoint: mean survival time, higher = longer survival
Method in brief: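 Ratio derived from survival: compound-dosed mice over vehicle-dosed mice, all bearing a transplantable tumor.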

[1] = dose: 100.0 mg/kg/injection, schedule: Q04DX003 (ip), vehicle: saline
[2] = dose: 200.0 mg/kg/injection, schedule: Q04DX003 (ip), vehicle: saline
[3] = dose: 400.0 mg/kg/injection, schedule: Q04DX003 (ip), vehicle: saline
[4] = dose: 75.0 mg/kg/injection, schedule: Q01DX001 (ip), vehicle: carboxymethylcellulose (CMC)
[5] = dose: 150.0 mg/kg/injection, schedule: Q01DX001 (ip), vehicle: carboxymethylcellulose (CMC)
[6] = dose: 100.0 mg/kg/injection, schedule: Q04DX002 (ip), vehicle: saline with Tween-80
[7] = dose: 200.0 mg/kg/injection, schedule: Q04DX002 (ip), vehicle: saline with Tween-80
[8] = dose: 400.0 mg/kg/injection, schedule: Q04DX002 (ip), vehicle: saline with Tween-80
[9] = dose: 200.0 mg/kg/injection, schedule: Q04DX002 (ip), vehicle: Klucel (hydroxypropylcellulose) (HPC)
[10] = dose: 400.0 mg/kg/injection, schedule: Q04DX002 (ip), vehicle: Klucel (hydroxypropylcellulose) (HPC)
[11] = dose: 100.0 mg/kg/injection, schedule: Q01DX001 (ip), vehicle: carboxymethylcellulose (CMC)
[12] = dose: 200.0 mg/kg/injection, schedule: Q01DX001 (ip), vehicle: carboxymethylcellulose (CMC)
[13] = dose: 400.0 mg/kg/injection, schedule: Q01DX001 (ip), vehicle: carboxymethylcellulose (CMC)

Measured: T/C

c1ccc([C@H]2O[C@@H]2c2ccccc2)cc1
inactive: dose: 12.5 mg/kg/injection, schedule: Q01DX009 (ip), vehicle: saline with Tween-80 91 % of control | dose: 12.5 mg/kg/injection, schedule: Q04DX003 (ip), vehicle: saline with Tween-80 96 % of control | dose: 25.0 mg/kg/injection, schedule: Q01DX009 (ip), vehicle: saline with Tween-80 96 % of control | dose: 25.0 mg/kg/injection, schedule: Q04DX003 (ip), vehicle: saline with Tween-80 93 % of control | dose: 50.0 mg/kg/injection, schedule: Q01DX009 (ip), vehicle: saline with Tween-80 94 % of control | dose: 50.0 mg/kg/injection, schedule: Q04DX003 (ip), vehicle: saline with Tween-80 96 % of control | dose: 100.0 mg/kg/injection, schedule: Q01DX001 (ip), vehicle: Klucel (hydroxypropylcellulose) (HPC) 97 % of control | dose: 100.0 mg/kg/injection, schedule: Q04DX003 (ip), vehicle: Klucel (hydroxypropylcellulose) (HPC) 92 % of control | dose: 200.0 mg/kg/injection, schedule: Q01DX001 (ip), vehicle: Klucel (hydroxypropylcellulose) (HPC) 101 % of control | dose: 200.0 mg/kg/injection, schedule: Q04DX003 (ip), vehicle: Klucel (hydroxypropylcellulose) (HPC) 101 % of control | dose: 400.0 mg/kg/injection, schedule: Q01DX001 (ip), vehicle: Klucel (hydroxypropylcellulose) (HPC) 103 % of control | dose: 400.0 mg/kg/injection, schedule: Q04DX003 (ip), vehicle: Klucel (hydroxypropylcellulose) (HPC) 97 % of control

CC1CCC/C(=N/Nc2ccc3ccccc3n2)C1 (stereo not drawn)
inactive: dose: 75.0 mg/kg/injection, schedule: Q01DX001 (ip), vehicle: saline 113 % of control

CC(C(=O)c1ccccc1)S(=O)(=O)O (stereo not drawn)
inactive: [1] 102 % of control | [2] 94 % of control | [3] 96 % of control

COC(=O)C(C)(C)Br
inactive: dose: 100.0 mg/kg/injection, schedule: Q01DX009 (ip), vehicle: saline sonified 94 % of control | dose: 200.0 mg/kg/injection, schedule: Q01DX009 (ip), vehicle: saline sonified 100 % of control | dose: 400.0 mg/kg/injection, schedule: Q01DX009 (ip), vehicle: saline sonified 100 % of control

OCc1nc2cc3nc(CO)[nH]c3cc2[nH]1
inactive: [4] 98 % of control | [5] 101 % of control

Oc1ccccc1/C=N\Sc1ccc(Br)cc1
inactive: [6] 112 % of control | [7] 91 % of control | [8] 94 % of control

CCCCCCCCCCCc1nc(N)nc(NCCCC)n1
inactive: dose: 12.5 mg/kg/injection, schedule: Q01DX009 (ip), vehicle: Klucel (hydroxypropylcellulose) (HPC) 97 % of control | dose: 25.0 mg/kg/injection, schedule: Q01DX009 (ip), vehicle: Klucel (hydroxypropylcellulose) (HPC) 96 % of control | dose: 25.0 mg/kg/injection, schedule: Q04DX002 (ip), vehicle: Klucel (hydroxypropylcellulose) (HPC) 93 % of control | dose: 50.0 mg/kg/injection, schedule: Q01DX009 (ip), vehicle: Klucel (hydroxypropylcellulose) (HPC) 86 % of control | dose: 50.0 mg/kg/injection, schedule: Q04DX002 (ip), vehicle: Klucel (hydroxypropylcellulose) (HPC) 96 % of control | [9] 89 % of control | [10] 89 % of control

CCCCN(C)/N=N/c1nc[nH]c1C#N
inactive: dose: 75.0 mg/kg/injection, schedule: Q01DX001 (ip), vehicle: other 105 % of control | dose: 75.0 mg/kg/injection, schedule: Q01DX009 (ip), vehicle: saline with Tween-80 103 % of control | dose: 75.0 mg/kg/injection, schedule: Q04DX003 (ip), vehicle: saline with Tween-80 105 % of control | dose: 150.0 mg/kg/injection, schedule: Q01DX001 (ip), vehicle: other 102 % of control | dose: 150.0 mg/kg/injection, schedule: Q01DX009 (ip), vehicle: saline with Tween-80 105 % of control | dose: 150.0 mg/kg/injection, schedule: Q04DX003 (ip), vehicle: saline with Tween-80 96 % of control | dose: 300.0 mg/kg/injection, schedule: Q01DX001 (ip), vehicle: other 101 % of control | dose: 300.0 mg/kg/injection, schedule: Q01DX009 (ip), vehicle: saline with Tween-80 109 % of control | dose: 300.0 mg/kg/injection, schedule: Q04DX003 (ip), vehicle: saline with Tween-80 96 % of control

CCCCNC(=O)Nc1ncn[nH]1
inactive: [4] 103 % of control | [5] 104 % of control | dose: 300.0 mg/kg/injection, schedule: Q01DX001 (ip), vehicle: carboxymethylcellulose (CMC) 97 % of control

ClC(Cl)(Cl)c1cccc(C(Cl)(Cl)Cl)n1
inactive: dose: 100.0 mg/kg/injection, schedule: Q04DX003 (sc), vehicle: olive oil, sesame oil, peanut oil 97 % of control and 103 % of control | dose: 200.0 mg/kg/injection, schedule: Q04DX003 (sc), vehicle: olive oil, sesame oil, peanut oil 97 % of control and 103 % of control | dose: 400.0 mg/kg/injection, schedule: Q04DX003 (sc), vehicle: olive oil, sesame oil, peanut oil 100 % of control and 101 % of control

NC(=O)c1ccccc1NC(=O)Nc1cc(C(F)(F)F)ccc1Cl
inactive: dose: 100.0 mg/kg/injection, schedule: Q01DX009 (ip), vehicle: Klucel (hydroxypropylcellulose) (HPC) 96 % of control | dose: 200.0 mg/kg/injection, schedule: Q01DX009 (ip), vehicle: Klucel (hydroxypropylcellulose) (HPC) 86 % of control | dose: 400.0 mg/kg/injection, schedule: Q01DX009 (ip), vehicle: Klucel (hydroxypropylcellulose) (HPC) 97 % of control

O=S(=O)(O)c1ccccn1
inactive: [1] 98 % of control | [2] 93 % of control

CCOC(=O)CNc1ccc(Cl)c(C)c1
inactive: dose: 100.0 mg/kg/injection, schedule: Q04DX002 (ip), vehicle: Klucel (hydroxypropylcellulose) (HPC) 111 % of control | [9] 107 % of control | [10] 111 % of control

Clc1nc2nnnn2c2ccccc12
inactive: dose: 20.0 mg/kg/injection, schedule: Q04DX003 (ip), vehicle: saline 101 % of control | dose: 40.0 mg/kg/injection, schedule: Q04DX003 (ip), vehicle: saline 101 % of control | dose: 80.0 mg/kg/injection, schedule: Q04DX003 (ip), vehicle: saline 104 % of control

COc1ccc(NP2(=O)OCC(C)(N)CO2)cc1 (stereo not drawn)
inactive: [11] 91 % of control | [12] 96 % of control | [13] 91 % of control

C=C(C)C(=O)OC1CC23OC2CC(COC3O)C2OC2C2OC(=O)C(=C)C12 (stereo not drawn)
inactive: dose: 6.25 mg/kg/injection, schedule: Q01DX009 (ip), vehicle: acetone 98 % of control | dose: 12.5 mg/kg/injection, schedule: Q01DX001 (ip), vehicle: acetone 106 % of control | dose: 12.5 mg/kg/injection, schedule: Q01DX009 (ip), vehicle: acetone 104 % of control | dose: 12.5 mg/kg/injection, schedule: Q04DX003 (ip), vehicle: acetone 90 % of control | dose: 25.0 mg/kg/injection, schedule: Q01DX001 (ip), vehicle: acetone 106 % of control | dose: 25.0 mg/kg/injection, schedule: Q04DX003 (ip), vehicle: acetone 104 % of control | dose: 50.0 mg/kg/injection, schedule: Q01DX001 (ip), vehicle: acetone 109 % of control

CC(C)(C)c1ccc(S(=O)(=O)c2ccc(C(C)(C)C)c(N=C=O)c2)cc1N=C=O
inactive: dose: 75.0 mg/kg/injection, schedule: Q04DX002 (ip), vehicle: saline with Tween-80 96 % of control | dose: 150.0 mg/kg/injection, schedule: Q04DX002 (ip), vehicle: saline with Tween-80 101 % of control | dose: 300.0 mg/kg/injection, schedule: Q04DX002 (ip), vehicle: saline with Tween-80 93 % of control

Oc1c(Cl)c(Cl)cc(Cl)c1Cc1c(Cl)cc(Cl)c(Cl)c1[O][Pb]([c]1ccccc1)([c]1ccccc1)[c]1ccccc1
inactive: dose: 6.25 mg/kg/injection, schedule: Q01DX009 (ip), vehicle: saline 101 % of control | dose: 12.5 mg/kg/injection, schedule: Q01DX009 (ip), vehicle: saline 95 % of control | dose: 25.0 mg/kg/injection, schedule: Q04DX002 (ip), vehicle: saline 86 % of control | dose: 100.0 mg/kg/injection, schedule: Q04DX002 (ip), vehicle: saline 97 % of control

CCOC(=O)c1ccc(N=Nc2ccc([N+](=O)[O-])cc2)cc1
inactive: [6] 105 % of control | [7] 105 % of control | [8] 112 % of control

[CH3][Sb]1([CH3])([I])[CH2]CC[CH2]1
inactive: [1] 101 % of control | [2] 97 % of control | [3] 101 % of control

Cc1ccc(C(=O)c2ccccc2N)cc1C
inactive: [11] 100 % of control | [12] 116 % of control | [13] 102 % of control
